Reference: US20230048132A1, “CYCLIN-DEPENDENT KINASE INHIBITORS” (SPV THERAPEUTICS INC., priority 2018, published 2023)
Where two headings read alike, the source gives them in different places.

What was measured:
CDK6-CYCLIND3 = biological target: T1, CDK6-CYCLIND3 (Homo sapiens, UniProt Q00534); test: CDK inhibition assay (microfluidic LabChip, IC50 format); assay type: biochemical
T1 construct: purchased Carna

CDK4-CYCLIND1 = CDK4-CYCLIND1 (Homo sapiens, UniProt P11802); test: as above
[1] = Table 4b, upper part, read-out: CDK6 IC50
[2] = CDK4 IC50, Table 4b, upper part
[3] = Table 3, second value of the cell CDK4/CDK6, value of the racemate, read-out: Racemate Activity CDK6
[4] = Racemate Activity CDK4, Table 3, first value of the cell CDK4/CDK6, value of the racemate

CDK4-CYCLIND1, sequence (P11802 whole entry): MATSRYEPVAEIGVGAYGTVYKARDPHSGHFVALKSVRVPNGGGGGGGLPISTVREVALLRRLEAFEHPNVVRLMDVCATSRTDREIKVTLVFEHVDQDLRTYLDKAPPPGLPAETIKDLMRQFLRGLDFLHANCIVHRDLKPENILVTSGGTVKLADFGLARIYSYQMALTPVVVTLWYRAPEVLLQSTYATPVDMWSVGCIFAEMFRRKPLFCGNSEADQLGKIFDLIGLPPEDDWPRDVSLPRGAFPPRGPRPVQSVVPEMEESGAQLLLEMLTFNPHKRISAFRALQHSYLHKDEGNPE
CDK4-CYCLIND1, sequence (P24385 whole entry partner): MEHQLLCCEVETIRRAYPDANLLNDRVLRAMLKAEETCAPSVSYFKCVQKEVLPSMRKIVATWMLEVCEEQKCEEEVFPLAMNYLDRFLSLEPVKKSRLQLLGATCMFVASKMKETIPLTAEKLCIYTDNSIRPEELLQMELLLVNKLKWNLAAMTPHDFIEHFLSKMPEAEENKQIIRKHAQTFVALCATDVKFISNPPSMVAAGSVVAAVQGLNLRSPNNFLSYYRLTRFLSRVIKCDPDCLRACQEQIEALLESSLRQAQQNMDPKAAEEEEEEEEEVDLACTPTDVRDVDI
T1 sequence (Q00534 whole entry): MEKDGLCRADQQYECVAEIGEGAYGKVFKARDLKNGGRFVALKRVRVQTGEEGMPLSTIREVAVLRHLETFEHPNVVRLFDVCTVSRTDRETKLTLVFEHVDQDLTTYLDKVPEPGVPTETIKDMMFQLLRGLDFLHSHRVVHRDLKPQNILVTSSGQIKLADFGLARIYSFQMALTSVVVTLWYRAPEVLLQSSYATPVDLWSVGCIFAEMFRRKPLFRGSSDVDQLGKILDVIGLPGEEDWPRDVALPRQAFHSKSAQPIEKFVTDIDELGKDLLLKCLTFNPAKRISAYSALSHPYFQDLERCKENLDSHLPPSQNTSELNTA
T1 sequence (P30281 whole entry partner): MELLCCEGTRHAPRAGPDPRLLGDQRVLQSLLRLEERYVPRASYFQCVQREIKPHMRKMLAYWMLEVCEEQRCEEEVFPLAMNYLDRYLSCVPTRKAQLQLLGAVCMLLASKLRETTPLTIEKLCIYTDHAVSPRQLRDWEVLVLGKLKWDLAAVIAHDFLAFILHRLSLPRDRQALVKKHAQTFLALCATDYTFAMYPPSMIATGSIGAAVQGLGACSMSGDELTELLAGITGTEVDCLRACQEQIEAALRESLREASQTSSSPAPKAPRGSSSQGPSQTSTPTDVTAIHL

| SMILES | IC50 (CDK6-CYCLIND3; [1]) [nM] | IC50 (CDK4-CYCLIND1; [2]) [nM] | IC50 (CDK6-CYCLIND3; [3]) [nM] | IC50 (CDK4-CYCLIND1; [4]) [nM] | IC50 (CDK6-CYCLIND3; Table 4b, lower part, read-out: CDK6 CyclinD3 IC50) [nM] |
| --- | --- | --- | --- | --- | --- |
| CN1CCC2(Cc3cnc(Nc4ccc(N5CCNCC5)cc4)nc3N(C3CCCC3)C2=O)C1=O (stereo not shown) [Example D1, 8-cyclopentyl-1′-methyl-2-((4-(piperazin-1-yl)phenyl)amino)-5,8-dihydro-7H-spiro[pyrido[2,3-d]pyrimidine-6,3′-pyrrolidine]-2′,7-dione] | 84.1 | 27 |  |  |  |
| CC(C)N1CCN(c2ccc(Nc3ncc4c(n3)N(C3CCCC3)C(=O)C3(CCN(C)C3=O)C4)cc2)CC1 (stereo not shown) [Example D2, 8-cyclopentyl-2-((4-(4-isopropylpiperazin-1-yl)phenyl)amino)-1′-methyl-5,8-dihydro-7H-spiro[pyrido[2,3-d]pyrimidine-6,3′-pyrrolidine]-2′,7-dione] | 360 | 83.6 |  |  |  |
| O=C1NCCC12Cc1cnc(Nc3ccc(N4CCNCC4)cc3)nc1N(C1CCCC1)C2=O (stereo not shown) [Example D3, 8-cyclopentyl-2-((4-(piperazin-1-yl)phenyl)amino)-5,8-dihydro-7H-spiro[pyrido[2,3-d]pyrimidine-6,3′-pyrrolidine]-2′,7-dione] | 6.03 | 2.81 | 6.03 | 2.81 |  |
| CN1CCN(c2ccc(Nc3ncc4c(n3)N(C3CCCC3)C(=O)C3(CCNC3=O)C4)cc2)CC1 (stereo not shown) [Example D4, 8-cyclopentyl-2-((4-(4-methylpiperazin-1-yl)phenyl)amino)-5,8-dihydro-7H-spiro[pyrido[2,3-d]pyrimidine-6,3′-pyrrolidine]-2′,7-dione] | 4.9 |  |  |  |  |
| CC(C)N1CCN(c2ccc(Nc3ncc4c(n3)N(C3CCCC3)C(=O)C3(CCNC3=O)C4)cc2)CC1 (stereo not shown) [Example D5] | 5.67 | 2.64 |  |  |  |
| CC(C)N1CCN(c2ccc(Nc3ncc4c(n3)N(C3CCCC3)C(=O)C3(CCNC3=O)C4)cn2)CC1 (stereo not shown) [Example D6, 8-cyclopentyl-2-((6-(4-isopropylpiperazin-1-yl)pyridin-3-yl)amino)-5,8-dihydro-7H-spiro[pyrido[2,3-d]pyrimidine-6,3′-pyrrolidine]-2′,7-dione] | 3.94 | 1.88 |  |  |  |
| O=C1NCCC12Cc1cnc(Nc3ccc(N4CCNCC4)nc3)nc1N(C1CCCC1)C2=O (stereo not shown) [Example D7, 8-cyclopentyl-2-((6-(piperazin-1-yl)pyridin-3-yl)amino)-5,8-dihydro-7H-spiro[pyrido[2,3-d]pyrimidine-6,3′-pyrrolidine]-2′,7-dione] | 13.1 | 8.68 |  |  |  |
| CN1CCN(c2ccc(Nc3ncc4c(n3)N(C3CCCC3)C(=O)C3(CCNC3=O)C4)nc2)CC1 (stereo not shown) [Example D8, 8-cyclopentyl-2-((5-(4-methylpiperazin-1-yl)pyridin-2-yl)amino)-5,8-dihydro-7H-spiro[pyrido[2,3-d]pyrimidine-6,3′-pyrrolidine]-2′,7-dione] | 3.92 | 2.06 |  |  |  |
| CC(C)N1CCN(c2ccc(Nc3ncc4c(n3)N(C3CCCC3)C(=O)C3(CCNC3=O)C4)nc2)CC1 (stereo not shown) [Example D9, 8-cyclopentyl-2-((5-(4-isopropylpiperazin-1-yl)pyridin-2-yl)amino)-5,8-dihydro-7H-spiro[pyrido[2,3-d]pyrimidine-6,3′-pyrrolidine]-2′,7-dione] | 6.11 | 2.99 |  |  |  |
| CC(C)N1CCN(c2ccc(Nc3ncc4c(n3)N(C3CCCC3)C(=O)C3(CCNC3=O)C4)cc2F)CC1 (stereo not shown) [Example D10, 8-cyclopentyl-2-((3-fluoro-4-(4-isopropylpiperazin-1-yl)phenyl)amino)-5,8-dihydro-7H-spiro[pyrido[2,3-d]pyrimidine-6,3′-pyrrolidine]-2′,7-dione] | 3.53 | 1.5 | 3.5 | 1.5 |  |
| O=C1NCCC12Cc1cnc(Nc3ccc(N4CCNCC4)c(F)c3)nc1N(C1CCCC1)C2=O (stereo not shown) [Example D11, 8-cyclopentyl-2-((3-fluoro-4-(piperazin-1-yl)phenyl)amino)-5,8-dihydro-7H-spiro[pyrido[2,3-d]pyrimidine-6,3′-pyrrolidine]-2′,7-dione] | 4.38 | 2.09 | 3.5 | 2.1 |  |
| CN1CCN(c2ccc(Nc3ncc4c(n3)N(C3CCCC3)C(=O)C3(CCNC3=O)C4)cc2F)CC1 (stereo not shown) [Example D12, 8-cyclopentyl-2-((3-fluoro-4-(4-methylpiperazin-1-yl)phenyl)amino)-5,8-dihydro-7H-spiro[pyrido[2,3-d]pyrimidine-6,3′-pyrrolidine]-2′,7-dione] | 2.86 | 1.83 | 2.9 | 1.8 |  |
| CN(C)CCOc1ccc(Nc2ncc3c(n2)N(C2CCCC2)C(=O)C2(CCNC2=O)C3)cc1 (stereo not shown) [Example D13, 8-cyclopentyl-2-((4-(2-(dimethylamino)ethoxy)phenyl)amino)-5,8-dihydro-7H-spiro[pyrido[2,3-d]pyrimidine-6,3′-pyrrolidine]-2′,7-dione] | 6.38 | 3.35 |  |  |  |

Second part, the compound after the results:

| IC50 (CDK6-CYCLIND3; [1]) [nM] | IC50 (CDK4-CYCLIND1; [2]) [nM] | IC50 (CDK6-CYCLIND3; [3]) [nM] | IC50 (CDK4-CYCLIND1; [4]) [nM] | IC50 (CDK6-CYCLIND3; Table 4b, lower part, read-out: CDK6 CyclinD3 IC50) [nM] | SMILES |
| --- | --- | --- | --- | --- | --- |
| 20.7 | 10.7 |  |  |  | CN(C)CCOc1ccc(Nc2ncc3c(n2)N(C2CCCC2)C(=O)C2(CCNC2=O)C3)cn1 (stereo not shown) [Example D14, 8-cyclopentyl-2-((6-(2-(dimethylamino)ethoxy)pyridin-3-yl)amino)-5,8-dihydro-7H-spiro[pyrido[2,3-d]pyrimidine-6,3′-pyrrolidine]-2′,7-dione] |
| 15.8 | 7.08 |  |  |  | O=C1NCCC12Cc1cnc(Nc3ccc(OCCN4CCCC4)nc3)nc1N(C1CCCC1)C2=O (stereo not shown) [Example D15, 8-cyclopentyl-2-((6-(2-(pyrrolidin-1-yl)ethoxy)pyridin-3-yl)amino)-5,8-dihydro-7H-spiro[pyrido[2,3-d]pyrimidine-6,3′-pyrrolidine]-2′,7-dione] |
| 8.81 | 5.25 |  |  |  | O=C1NCCC12Cc1cnc(Nc3ccc(OCCN4CCCC4)c(F)c3)nc1N(C1CCCC1)C2=O (stereo not shown) [Example D16, 8-cyclopentyl-2-((3-fluoro-4-(2-(pyrrolidin-1-yl)ethoxy)phenyl)amino)-5,8-dihydro-7H-spiro[pyrido[2,3-d]pyrimidine-6,3′-pyrrolidine]-2′,7-dione] |
| 10.2 | 4.41 |  |  |  | O=C1NCCC12Cc1cnc(Nc3ccc(N4CCOCC4)c(F)c3)nc1N(C1CCCC1)C2=O (stereo not shown) [Example D17, 8-cyclopentyl-2-((3-fluoro-4-morpholinophenyl)amino)-5,8-dihydro-7H-spiro[pyrido[2,3-d]pyrimidine-6,3′-pyrrolidine]-2′,7-dione] |
| 166 | 53 |  |  |  | CC(C)N1CCN(c2ccc(Nc3ncc4c(n3)N(C3CCCC3)C(=O)C3(CCN(C)C3=O)C4)cn2)CC1 (stereo not shown) [Example D18, 8-cyclopentyl-2-((6-(4-isopropylpiperazin-1-yl)pyridin-3-yl)amino)-1′-methyl-5,8-dihydro-7H-spiro[pyrido[2,3-d]pyrimidine-6,3′-pyrrolidine]-2′,7-dione] |
| 97.2 | 33.6 |  |  |  | CN1CCN(c2ccc(Nc3ncc4c(n3)N(C3CCCC3)C(=O)C3(CCN(C)C3=O)C4)cc2F)CC1 (stereo not shown) [Example D19, 8-cyclopentyl-2-((3-fluoro-4-(4-methylpiperazin-1-yl)phenyl)amino)-1′-methyl-5,8-dihydro-7H-spiro[pyrido[2,3-d]pyrimidine-6,3′-pyrrolidine]-2′,7-dione] |
| 198 | 50.7 |  |  |  | CN1C(=O)CC2(Cc3cnc(Nc4ccc(N5CCNCC5)cc4)nc3N(C3CCCC3)C2=O)C1=O (stereo not shown) [Example D20, 8-cyclopentyl-1′-methyl-2-((4-(piperazin-1-yl)phenyl)amino)-5,8-dihydro-7H-spiro[pyrido[2,3-d]pyrimidine-6,3′-pyrrolidine]-2′,5′,7-trione] |
| 166 | 51.2 |  |  |  | CN1CCN(c2ccc(Nc3ncc4c(n3)N(C3CCCC3)C(=O)C3(CC(=O)N(C)C3=O)C4)cc2)CC1 (stereo not shown) [Example D21, 8-cyclopentyl-1′-methyl-2-((4-(4-methylpiperazin-1-yl)phenyl)amino)-5,8-dihydro-7H-spiro[pyrido[2,3-d]pyrimidine-6,3′-pyrrolidine]-2′,5′,7-trione] |
| 129 | 28.6 |  |  |  | CC(C)N1CCN(c2ccc(Nc3ncc4c(n3)N(C3CCCC3)C(=O)C3(CC(=O)N(C)C3=O)C4)cc2)CC1 (stereo not shown) [Example D22, 8-cyclopentyl-2-((4-(4-isopropylpiperazin-1-yl)phenyl)amino)-1′-methyl-5,8-dihydro-7H-spiro[pyrido[2,3-d]pyrimidine-6,3′-pyrrolidine]-2′,5′,7-trione] |
| 65400 | 17100 |  |  |  | CN1C(=O)CC2(Cc3cnc(Nc4ccc(N5CCNCC5)cn4)nc3N(C3CCCC3)C2=O)C1=O (stereo not shown) [Example D23, 8-cyclopentyl-1′-methyl-2-((5-(piperazin-1-yl)pyridin-2-yl)amino)-5,8-dihydro-7H-spiro[pyrido[2,3-d]pyrimidine-6,3′-pyrrolidine]-2′,5′,7-trione] |
| 373 | 127 |  |  |  | CN1C(=O)CC2(Cc3cnc(Nc4ccc(N5CCNCC5)nc4)nc3N(C3CCCC3)C2=O)C1=O (stereo not shown) [Example D24, 8-cyclopentyl-1′-methyl-2-((6-(piperazin-1-yl)pyridin-3-yl)amino)-5,8-dihydro-7H-spiro[pyrido[2,3-d]pyrimidine-6,3′-pyrrolidine]-2′,5′,7-trione] |
| 455 | 135 |  |  |  | CN1CCN(c2ccc(Nc3ncc4c(n3)N(C3CCCC3)C(=O)C3(CC(=O)N(C)C3=O)C4)cn2)CC1 (stereo not shown) [Example D25, 8-cyclopentyl-1′-methyl-2-((6-(4-methylpiperazin-1-yl)pyridin-3-yl)amino)-5,8-dihydro-7H-spiro[pyrido[2,3-d]pyrimidine-6,3′-pyrrolidine]-2′,5′,7-trione] |
|  |  |  |  | 16200 | O=C1NCC[C@@]12Cc1cnc(N3CC4(CNC4)C3)nc1N(C1CCCC1)C2=O [Example D198, (S)-8-cyclopentyl-2-(2,6-diazaspiro[3.3]heptan-2-yl)-5,8-dihydro-7H-spiro[pyrido[2,3-d]pyrimidine-6,3′-pyrrolidine]-2′,7-dione] |
